Experimental data reported in publication PMC12691742, “Anti-Cancer Outcome of Glucocorticoid Receptor Transrepression by Synephrine Derivatives in Hematological Malignancies” (International Journal of Molecular Sciences, 2025).
Read-outs that look alike come from different tables or passages of the source.

What was measured:
Format in all cases: cell-based
[1] = test system: NF-kB activity in Granta cells; assay: NF-kB.Luc reporter assay in Granta cells; conditions: 5 h, 10S-E2 1 µM
Procedure: (§1) We analyzed GR TR function using an NF-kB.Luc reporter assay with the irritating inflammatory agent phorbol 13-acetate 12-myristate (TPA) as an inducer of NF-kB signaling and positive control.
(§2) Figure 4 Effects of synephrine derivatives on GR transrepression in Granta lymphoma and K562 leukemia cells. (A) K562 and Granta cells stably infected with the lentiviruses bearing the NF-kB luciferase reporter. Cells were incubated for 5 h with the solvent (control), TPA (5 ng/mL), 4S-C2 (10 µM), 8S-E3 (10 µM), 10S-E2 (1 µM), or 13S-G2 (1 µM). Luciferase activity was determined as described in the Materials and Methods section. (B) IL1-α and IL6 mRNA expression in K562 and Granta cells. Q-PCR results were normalized to the expression of the housekeeping gene RPL27 and are presented as the fold change compared to the control. The mean ± SD was calculated for three individual samples/condition (n = 3). Statistically significant differences compared to the control: * p < 0.05, ** p < 0.01.
Lentiviral stocks were generated using the lentiviral expression vector NF-kB. Luc was encoded with Firefly Luciferase reporters with the NF-kB-responsive promoter of minimal CMV promoter as a control (“System Bioscience”, Moutain View, CA, USA), along with packing plasmids GAG, REV, and VSVg. HEK-293T cells were transfected with the abovementioned plasmids using TurboFect reagent (“Thermo Scientific”, Waltham, MA, USA) according to the manufacturer’s protocol. […] The infection efficiency exceeded 90% (tracked by GFP fluorescence).
(§3) Cells (10^4 cells/well in a 24-well plate), stably expressing Firefly Luciferase under the NF-kB promoter, were treated for 5 h with TPA (12-O-tetradecanoylphorbol-13-acetate, Boston, MA, USA, 10 ng/mL), 4S-C2 (10 µM), 8S-E3 (10 µM), 10S-E2 (1 µM), 13S-G2 (1 µM), or the vehicle. Luciferase activity was measured as described using a commercial Luciferase Assay (“Promega”, Madison, WI, USA) and Luminometer TD 20/20 (“Turner Design Instruments”, San Jose, CA, USA). […]

K562 cells = assay: Cell cycle analysis by PI flow cytometry in K562 cells; conditions: 24 h, 10S-E2 6.25 µM
Procedure: Figure 5 Pro-apoptotic and anti-cancer effects of synephrine derivatives in vitro and in vivo. (A) Effect of 4S-C2, 8S-E3, 10S-E2, and 13S-G2 on cell cycle progression in K562 and Granta cells after 24 h of incubation. The cells were fixed with ethanol, stained with propidium iodide, and analyzed using flow cytometry. Statistically significant difference compared to control: *—p < 0.05, **—p < 0.01 (n = 3). (B) In vivo anti-cancer activity was evaluated using the transplantable P388 murine lymphoma model. […] Tumor nodule size was measured twice a week using digital calipers. Statistically significant differences compared to the control: * p < 0.05, ** p < 0.01.
The distribution of cells by cell cycle phases was evaluated using propidium iodide (PI) staining, as described in [19]. […] After incubation, the cells were resuspended in 70% ethanol and fixed for 2h at 4 °C. Cells were then washed twice with cold PBS, pH 7.4, and stained with 500 µL of cold propidium iodide (PI) solution (50 µg/mL PI, 1% Triton X-100, and 100 µg/mL RNase A in PBS). The cell cycle distribution of cells in samples was analyzed using an FACSCalibur Flow Cytometer (“BD Biosciences”, San Jose, CA, USA). The experiments were performed in triplicate.

[2] = test system: NF-kB activity in K562 cells; assay: NF-kB.Luc reporter assay in K562 cells; conditions: 5 h, 10S-E2 1 µM
Procedure: as §1
as §2, with “Q-PCR results were normalized to the expression of the housekeeping gene RPL27 and are presented as the fold change compared to the control.” left out, “Statistically significant differences compared to the control: * p < 0.05, ** p < 0.01.” left out
Lentiviral stocks were generated using the lentiviral expression vector NF-kB. […] The infection efficiency exceeded 90% (tracked by GFP fluorescence).
as §3

[3] = test system: primary lymphoblasts from pediatric patients with acute lymphoblastic leukemia; assay: Resazurin cytotoxicity assay in primary lymphoblasts; conditions: Homo sapiens
Description: Peripheral blood samples were collected from 1–10-year-old pediatric patients with newly diagnosed ALL in the acute phase of the disease or from adult healthy volunteers at N.N. Blokhin National Research Center of Oncology. The Ethical Committee of the N.N. Blokhin National Research Center of Oncology approved this study, and written informed consents were provided. […] were isolated by centrifugation with Ficoll-Isopaque (“Paneco”, Russia) and then cultured in the RPMI-1640 media (“Paneco”, Russia) supplemented with 20% FBS (“Biowest”, France), 2 mM L-glutamine, 0.5 ME/mL penicillin and 0.5 µg/mL streptomycin (“Paneco”, Russia) and 10 mg/L phytohaemagglutinin (“Paneco”, Moscow, Russia).
Isolated PBMCs were seeded into 96-well plates (2 × 10^6 cells/well) and treated with 10S-E2 at a wide range of concentrations (2–200 µM). Cell viability was analyzed after 24 h of incubation, assessing metabolic activity with the addition of 0.177 mg/mL of resazurin at 8–10 h before the end of the incubation. Fluorescence intensity was evaluated using a Fluoroskan FL microplate fluorimeter (“Thermo Scientific”, Waltham, MA, USA). The IC50 values were determined using GraphPad Prism (Ver.7.0) software. The experiments were performed in triplicate.

CCCCCCNCC(O)c1ccc(OCc2ccccc2)cc1 (stereo not drawn) [10S-E2, 1-[4-(benzyloxy)phenyl]-2-(hexylamino)ethanol]
effect on NF-kB activity ([1]; 4S-C2 10 µM): not statistically significant
inhibition of luciferase activity (NF-kB) [1]: 15%
induction of apoptosis (K562 cells): did not induce apoptosis
number of cells in the G1 phase (K562 cells): decrease in the number of cells in the G1 phase
number of replicating cells in the S phase (K562 cells): increased the number of replicating cells in the S phase
inhibition of luciferase activity (NF-kB) [2]: 60%
IC50 ([3]; 24 h, patient code 3, 24 h, read-out: IC50 of cytotoxic effect): 40.9 ± 3.12 µM
IC50 ([3]; 24 h, patient code 4, 24 h, read-out: IC50 of cytotoxic effect): 43.2 ± 9.48 µM
IC50 ([3]; 24 h, patient code 7, 24 h, read-out: IC50 of cytotoxic effect): 43 ± 0.71 µM
IC50 ([3]; 24 h, patient code 8, 24 h, read-out: IC50 of cytotoxic effect): 60.6 ± 0.97 µM
IC50 ([3]; 24 h, patient code 10, 24 h, read-out: IC50 of cytotoxic effect): 71.3 ± 5.59 µM
IC50 ([3]; 24 h, patient code 12, 24 h, read-out: IC50 of cytotoxic effect): 75.7 ± 4.63 µM
IC50 ([3]; 24 h, patient code 20, 24 h, read-out: IC50 of cytotoxic effect): 64.2 ± 0.55 µM
IC50 ([3]; 24 h, patient code 21, 24 h, read-out: IC50 of cytotoxic effect): 49.4 ± 1.95 µM
IC50 ([3]; 24 h, patient code 23, 24 h, read-out: IC50 of cytotoxic effect): 55.2 ± 2.25 µM
IC50 ([3]; 24 h, patient code 24, 24 h, read-out: IC50 of cytotoxic effect): 70.3 ± 2.54 µM
IC50 ([3]; 24 h, patient code 25, 24 h, read-out: IC50 of cytotoxic effect): 80.3 ± 4.09 µM
IC50 ([3]; 24 h, patient code 30, 24 h, read-out: IC50 of cytotoxic effect): 52.4 ± 0.07 µM
IC50 ([3]; 24 h, patient code 31, 24 h, read-out: IC50 of cytotoxic effect): 63.2 ± 1.42 µM
IC50 ([3]; 24 h, patient code 33, 24 h, read-out: IC50 of cytotoxic effect): 67.6 ± 4.02 µM
IC50 ([3]; 24 h, patient code 34, 24 h, read-out: IC50 of cytotoxic effect): 55 ± 1.91 µM
IC50 ([3]; 24 h, patient code 35, 24 h, read-out: IC50 of cytotoxic effect): 65.9 ± 0.27 µM
IC50 ([3]; 24 h, patient code 37, 24 h, read-out: IC50 of cytotoxic effect): 69.8 ± 3.66 µM
IC50 ([3]; 24 h, patient code 39, 24 h, read-out: IC50 of cytotoxic effect): 71.3 ± 2.59 µM
IC50 ([3]; 24 h, patient code 46, 24 h, read-out: IC50 of cytotoxic effect): 71.5 ± 2.08 µM
IC50 ([3]; primary lymphoblast samples from 19 patients diagnosed with ALL, read-out: IC50 of cytotoxic effect, range over samples): 40 to 70 µM
